Assay results reported in US9855253B2, “Pharmaceutical composition containing FK506 derivative for treating fungal infection caused by genus Cryptococcus and genus Candida and use thereof” (INTRON BIOTECHNOLOGY CO., LTD., priority 2014, dated 2018).

What was measured:
Candida albicans = assay: serum sensitivity of Candida albicans as a function of time (FIG. 3); assay type: cell-based; settings: result in words
Description: FIG. 3 is a graph showing the inhibitory activity of a composition according to one embodiment of the present invention against Candida albicans as a function of time. FIG. 3 is a graph showing an increased or decreased change in the serum sensitivity of Candida albicans for 31-O-demethyl-FK506 that is FK506 derivative. Lower serum sensitivity with the passage of time indicates higher antifungal activity.

Cryptococcus neoformans = assay: standard agar diffusion method (paper disk), antifungal activity; assay type: cell-based; settings: for zone of inhibition at 10 µg/mL: Cryptococcus neoformans treated with 10 μg/ml, 6 mm disk, PDA medium, incubated 2-3 days, read-out: diameters of the inhibition zones; for inhibition zones at higher concentrations (FIGS. 1 and 2): concentrations of 10 μg/ml and 40 μg/ml
Description: The antifungal activities of FK506 derivatives against fungi such as Cryptococcus neoformans and Candida albicans, which are human pathogenic yeasts, were analyzed by the standard agar diffusion method (Murray et al., 1995 Manual of clinical microbiology (6th ed.), Washington, ASM Press, pp. 1275-1294), 100 μL of a standardized inoculam containing 10^7 CFU/ml, of a fungal suspension was uniformly plated in a Petri dish containing 20 mL of potato-dextrose agar (PDA) medium, and was dried for 5 minutes. A sterilized Whatman No. 1 filter paper disk baying a diameter of 6 mm was wet with each of 0.1 μg, 1 μg, 10 μg and 40 μg/ml of FK506 derivative dissolved in the same solvent as that used for extraction. As a control, an untreated disk and a disk wet with FK506 were used. Each plate was incubated at 30° C. and 37° C. for 2-3 days, and then the antifungal activity of each FK506 derivative was evaluated by comparing the diameters of inhibition zones against Cryptococcus neoformans and Candida albicans. The experiment for analysis of the antifungal activity was repeated at least three times. […] The diameters of the inhibition zones are shown in units of mm.

[1] = background statement; result in words; cited from earlier work

SMILES	inhibitory activity against Candida albicans compared with FK506, late time points (FIG. 3) (Candida albicans; from 6 hours after treatment)	inhibitory activity against Candida albicans compared with FK506 (FIG. 3) (Candida albicans; serum sensitivity over time)	zone of inhibition at 10 µg/mL (Cryptococcus neoformans) [mm]	inhibitory activity against Cryptococcus neoformans compared with FK506 (Cryptococcus neoformans; comparison with FK506, result in words)	inhibition zones at higher concentrations (FIGS. 1 and 2) (Cryptococcus neoformans; result in words)	inhibitory activity against Cryptococcus neoformans (FIGS. 1 and 2) (Cryptococcus neoformans; result in words)	toxicity or side effects relative to Cyclosporine A [1]
C=CC[C@@H]1/C=C(\C)C[C@H](C)C[C@H](OC)[C@H]2O[C@@](O)(C(=O)C(=O)N3CCCC[C@H]3C(=O)O[C@H](/C(C)=C/C3CC[C@@H](O)[C@H](O)C3)[C@H](C)C(O)CC1=O)[C@H](C)C[C@@H]2OC (stereo in doubt) [Formula (I), 31-O-demethyl-FK506]	maintained inhibitory activity higher than FK506	almost equal to that of FK506	26.4	inhibitory activity higher than FK506	large inhibition zones	had inhibitory activity	–
C=CC[C@@H]1/C=C(\C)C[C@H](C)C[C@H](OC)[C@H]2O[C@@](O)(CC(=O)N3CCCC[C@H]3C(=O)O[C@H](/C(C)=C/C3CC[C@@H](O)[C@H](O)C3)[C@H](C)[C@H](O)CC1=O)[C@H](C)C[C@@H]2OC (stereo partly shown) [Formula (III), 9-deoxo-31-O-demethyl-FK506]	–	–	21.6	–	large inhibition zones	had inhibitory activity	–
C=CC[C@@H]1/C=C(\C)C[C@H](C)C[C@H](OC)[C@H]2O[C@@](O)(CC(=O)N3CCCC[C@H]3C(=O)O[C@H](/C(C)=C/C3CC[C@@H](O)[C@H](OC)C3)[C@H](C)[C@H](O)CC1=O)[C@H](C)C[C@@H]2OC (stereo partly shown) [Formula (II), 9-deoxo-FK506]	–	–	21.6	–	–	had inhibitory activity	–
C=CC[C@@H]1/C=C(\C)C[C@H](C)C[C@H](OC)[C@H]2O[C@@](O)(C(=O)C(=O)N3CCCC[C@H]3C(=O)O[C@H](/C(C)=C/[C@@H]3CC[C@@H](O)[C@H](OC)C3)[C@H](C)[C@@H](O)CC1=O)[C@H](C)C[C@@H]2OC [FK506]	–	–	16.8	–	–	–	comparable to Cyclosporine A
